Test results as given in patent US20090054403A1, “Treatment of Post-Traumatic Stress Disorder” (priority 2007, published 2009).
pIC50, pKi: −log10 of the molar value.

Assays:
[1] = target: 5-HT2A serotonin receptors (Homo sapiens, UniProt P28223); test: Radioligand binding assay
Experimental: (§1) The activity of nepicastat at twelve selected enzymes and receptors was determined using established assays. Details of individual receptor radioligand binding assays can be found in Wong et al (1993). Binding data were analyzed by iterative curve-fitting to a four parameter logistic equation. Ki values were calculated from IC50 values using the Cheng-Prusoff equation. Enzyme inhibitory activity was expressed as IC50 (concentration required to produce 50% inhibition of enzyme activity). Male SHRs (15-16 weeks old, Charles River, Wilmington, Mass., USA) were used in the study. On the day of the study, animals were weighed and randomly assigned to be dosed with either vehicle (control) or the appropriate dose of nepicastat (3, 10, 30 or 100 mg.kg^−1, po) or (R)-5-Aminomethyl-1-(5,7-difluoro-1,2,3,4-tetrahydronaphth-2-yl)-2,3-dihydro-2-thioxo-1H-imidazole hydrochloride (30 mg.kg^−1, po) three consecutive times, twelve hours apart. At six hours after the third dose, the rats were anaesthetized with halothane, decapitated and tissues (cerebral cortex, mesenteric artery and left ventricle) were rapidly harvested, weighed, placed in iced perchloric acid (0.4 M), frozen in liquid nitrogen and stored at −70° C. until subsequent analysis. To quantify noradrenaline and dopamine concentrations, tissues were homogenized by brief sonication and centrifuged at 13,000 rpm for 30 minutes at 4° C. The supernatant, spiked with 3,4-dihydroxybenzylamine (internal standard), was assayed for noradrenaline and dopamine by HPLC using electrochemical detection.
(§2) In vitro assay of selected enzymes and neurotransmitter receptors. The activity of 2a at eleven different enzymes was determined using established assays (PanLabs Inc, Foster City, Calif.). The affinity of 2a for thirteen selected receptors was determined by radioligand binding assays using standard filtration techniques and membrane preparations. Binding data were analyzed by iterative curve fitting to a four parameter logistic equation. Ki values were calculated using the Cheng-Prusoff equation.

β2 adrenoceptors = β2 adrenoceptors (Homo sapiens, UniProt P07550); test: Radioligand binding assay
Experimental: as §1, §2

β1 adrenoceptors = β1 adrenoceptors (Homo sapiens, UniProt P08588); test: Radioligand binding assay
β1 adrenoceptors, sequence (P08588 whole entry): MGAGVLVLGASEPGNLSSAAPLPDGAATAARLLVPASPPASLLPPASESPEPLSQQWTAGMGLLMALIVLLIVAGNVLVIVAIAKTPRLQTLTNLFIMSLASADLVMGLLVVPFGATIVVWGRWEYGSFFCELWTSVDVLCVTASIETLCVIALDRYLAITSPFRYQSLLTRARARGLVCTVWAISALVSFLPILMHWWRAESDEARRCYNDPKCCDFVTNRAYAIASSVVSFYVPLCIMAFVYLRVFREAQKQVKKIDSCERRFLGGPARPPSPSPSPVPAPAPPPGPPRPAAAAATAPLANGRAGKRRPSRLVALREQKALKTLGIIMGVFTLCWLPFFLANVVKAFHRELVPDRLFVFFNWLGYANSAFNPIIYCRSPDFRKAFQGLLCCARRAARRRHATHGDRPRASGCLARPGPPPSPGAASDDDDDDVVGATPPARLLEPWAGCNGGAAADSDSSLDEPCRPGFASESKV
Experimental: as §1, §2

α2B adrenoceptors = α2B adrenoceptors (Homo sapiens, UniProt P18089); test: Radioligand binding assay
Experimental: as §1, §2

D1 dopamine receptors = D1 dopamine receptors (Homo sapiens, UniProt P21728); test: Radioligand binding assay
D1 dopamine receptors, sequence (P21728 whole entry): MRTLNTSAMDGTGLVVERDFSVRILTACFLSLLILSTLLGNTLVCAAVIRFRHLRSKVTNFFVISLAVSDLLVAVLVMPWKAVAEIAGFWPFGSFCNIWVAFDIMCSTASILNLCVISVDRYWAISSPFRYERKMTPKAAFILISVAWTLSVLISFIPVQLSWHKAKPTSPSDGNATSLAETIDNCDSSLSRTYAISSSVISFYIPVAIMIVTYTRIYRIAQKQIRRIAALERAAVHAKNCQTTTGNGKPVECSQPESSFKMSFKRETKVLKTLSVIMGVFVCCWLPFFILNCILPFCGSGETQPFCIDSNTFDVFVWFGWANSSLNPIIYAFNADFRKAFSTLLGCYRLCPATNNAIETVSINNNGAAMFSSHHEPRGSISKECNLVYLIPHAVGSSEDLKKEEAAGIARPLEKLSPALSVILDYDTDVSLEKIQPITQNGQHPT
Experimental: as §1, §2

α2A adrenoceptors = α2A adrenoceptors (Homo sapiens, UniProt P08913); test: Radioligand binding assay
Experimental: as §1, §2

[2] = target: 5-HT1A serotonin receptors (Homo sapiens, UniProt P08908); test: Radioligand binding assay
Experimental: as §1, §2

D2 dopamine receptors = D2 dopamine receptors (Homo sapiens, UniProt P14416); test: Radioligand binding assay
D2 dopamine receptors, sequence (P14416 whole entry): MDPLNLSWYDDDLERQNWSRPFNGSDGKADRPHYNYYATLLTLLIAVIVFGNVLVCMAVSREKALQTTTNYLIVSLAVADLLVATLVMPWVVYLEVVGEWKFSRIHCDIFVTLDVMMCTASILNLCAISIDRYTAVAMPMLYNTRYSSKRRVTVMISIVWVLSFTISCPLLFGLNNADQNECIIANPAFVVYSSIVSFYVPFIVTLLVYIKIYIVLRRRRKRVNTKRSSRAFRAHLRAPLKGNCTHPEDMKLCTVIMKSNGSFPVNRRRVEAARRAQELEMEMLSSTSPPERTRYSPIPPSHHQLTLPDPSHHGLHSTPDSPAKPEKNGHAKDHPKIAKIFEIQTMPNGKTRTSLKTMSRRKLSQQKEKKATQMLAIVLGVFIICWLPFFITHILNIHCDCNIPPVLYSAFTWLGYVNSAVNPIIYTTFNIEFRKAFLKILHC
Experimental: as §1, §2

[3] = target: 5-HT2C serotonin receptors (Homo sapiens, UniProt P28335); test: Radioligand binding assay
Experimental: as §1, §2

μ opioid receptors = μ opioid receptors (Homo sapiens, UniProt P35372); test: Radioligand binding assay
μ opioid receptors, sequence (P35372 whole entry): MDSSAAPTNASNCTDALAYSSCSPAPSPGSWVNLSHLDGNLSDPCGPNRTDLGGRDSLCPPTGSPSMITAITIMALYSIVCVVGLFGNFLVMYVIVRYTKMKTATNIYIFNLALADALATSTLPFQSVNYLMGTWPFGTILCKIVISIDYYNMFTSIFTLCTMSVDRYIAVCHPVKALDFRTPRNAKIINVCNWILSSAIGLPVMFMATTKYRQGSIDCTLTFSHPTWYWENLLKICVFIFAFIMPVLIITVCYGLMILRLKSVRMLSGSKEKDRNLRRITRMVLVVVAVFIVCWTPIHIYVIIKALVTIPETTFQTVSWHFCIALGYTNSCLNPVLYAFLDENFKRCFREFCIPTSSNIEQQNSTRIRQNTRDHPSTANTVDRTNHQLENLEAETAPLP
Experimental: as §1, §2

M1 muscarinic receptors = M1 muscarinic receptors (Homo sapiens, UniProt P11229); test: Radioligand binding assay
M1 muscarinic receptors, sequence (P11229 whole entry): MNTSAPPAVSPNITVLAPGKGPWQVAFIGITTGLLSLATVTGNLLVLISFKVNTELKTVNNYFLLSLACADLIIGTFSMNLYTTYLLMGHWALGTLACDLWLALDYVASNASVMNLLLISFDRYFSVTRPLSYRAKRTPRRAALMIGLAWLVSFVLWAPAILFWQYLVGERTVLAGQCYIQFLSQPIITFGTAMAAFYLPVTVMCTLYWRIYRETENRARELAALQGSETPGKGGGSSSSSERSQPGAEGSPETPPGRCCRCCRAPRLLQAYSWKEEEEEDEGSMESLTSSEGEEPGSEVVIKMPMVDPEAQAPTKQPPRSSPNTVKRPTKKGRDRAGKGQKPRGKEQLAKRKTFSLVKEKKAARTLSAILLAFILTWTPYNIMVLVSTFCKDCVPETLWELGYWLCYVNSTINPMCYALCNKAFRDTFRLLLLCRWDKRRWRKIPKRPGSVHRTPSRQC
Experimental: as §1, §2

⊕1B adrenoceptors = ⊕1B adrenoceptors (Homo sapiens, UniProt P35368); test: Radioligand binding assay
⊕1B adrenoceptors, sequence (P35368 whole entry): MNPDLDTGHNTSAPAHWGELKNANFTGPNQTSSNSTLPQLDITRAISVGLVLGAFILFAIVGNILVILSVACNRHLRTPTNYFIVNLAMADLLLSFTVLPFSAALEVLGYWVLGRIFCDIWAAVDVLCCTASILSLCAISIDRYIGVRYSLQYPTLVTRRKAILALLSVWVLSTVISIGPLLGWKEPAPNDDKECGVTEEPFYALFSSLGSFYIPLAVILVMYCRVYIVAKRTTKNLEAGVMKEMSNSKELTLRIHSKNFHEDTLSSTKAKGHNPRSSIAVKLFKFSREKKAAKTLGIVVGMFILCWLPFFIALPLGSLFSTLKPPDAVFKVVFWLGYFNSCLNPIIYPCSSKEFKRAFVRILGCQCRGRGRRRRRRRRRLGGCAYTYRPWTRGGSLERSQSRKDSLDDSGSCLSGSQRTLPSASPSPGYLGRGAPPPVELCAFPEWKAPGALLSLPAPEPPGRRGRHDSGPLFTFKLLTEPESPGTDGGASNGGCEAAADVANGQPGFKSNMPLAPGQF
Experimental: as §1, §2

[4] = target: acyl CoA-cholesterol acyl transferase; test: Selected enzyme assay; format: biochemical
Experimental: as §1, §2

cyclooxygenase-I = target: T1, cyclooxygenase-I (Homo sapiens, UniProt P23219); test: Selected enzyme assay; format: biochemical
T1 construct: PanLabs Inc (assay provider)
Experimental: as §1, §2

tyrosine hydroxylase = target: T2, tyrosine hydroxylase (Homo sapiens, UniProt P07101); test: Selected enzyme assay; format: biochemical
T2 construct: PanLabs Inc (assay provider)
T2 sequence (P07101 whole entry): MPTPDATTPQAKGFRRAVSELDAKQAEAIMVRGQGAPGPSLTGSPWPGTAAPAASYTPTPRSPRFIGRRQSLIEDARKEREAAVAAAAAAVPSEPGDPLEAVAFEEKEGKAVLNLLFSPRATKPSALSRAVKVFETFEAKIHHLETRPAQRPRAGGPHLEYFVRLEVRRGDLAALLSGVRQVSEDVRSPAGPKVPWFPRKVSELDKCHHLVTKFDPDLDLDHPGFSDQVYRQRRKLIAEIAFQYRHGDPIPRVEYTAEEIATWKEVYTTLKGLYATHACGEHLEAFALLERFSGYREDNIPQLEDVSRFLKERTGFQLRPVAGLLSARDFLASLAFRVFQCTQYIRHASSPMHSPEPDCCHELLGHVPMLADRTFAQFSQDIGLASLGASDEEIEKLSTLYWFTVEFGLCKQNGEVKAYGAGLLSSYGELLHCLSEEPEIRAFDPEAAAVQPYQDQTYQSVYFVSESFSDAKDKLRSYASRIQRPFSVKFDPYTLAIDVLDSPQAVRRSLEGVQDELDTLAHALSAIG
Experimental: as §1, §2

acetyl CoA synthetase = test: Selected enzyme assay; format: biochemical
Experimental: as §1, §2

nitric oxide synthase = test: Selected enzyme assay; format: biochemical
Experimental: as §1, §2

HMG-CoA reductase = target: T3, HMG-CoA reductase (Homo sapiens, UniProt P04035); test: Selected enzyme assay; format: biochemical
T3 construct: PanLabs Inc (assay provider)
T3 sequence (P04035 whole entry, species assumed): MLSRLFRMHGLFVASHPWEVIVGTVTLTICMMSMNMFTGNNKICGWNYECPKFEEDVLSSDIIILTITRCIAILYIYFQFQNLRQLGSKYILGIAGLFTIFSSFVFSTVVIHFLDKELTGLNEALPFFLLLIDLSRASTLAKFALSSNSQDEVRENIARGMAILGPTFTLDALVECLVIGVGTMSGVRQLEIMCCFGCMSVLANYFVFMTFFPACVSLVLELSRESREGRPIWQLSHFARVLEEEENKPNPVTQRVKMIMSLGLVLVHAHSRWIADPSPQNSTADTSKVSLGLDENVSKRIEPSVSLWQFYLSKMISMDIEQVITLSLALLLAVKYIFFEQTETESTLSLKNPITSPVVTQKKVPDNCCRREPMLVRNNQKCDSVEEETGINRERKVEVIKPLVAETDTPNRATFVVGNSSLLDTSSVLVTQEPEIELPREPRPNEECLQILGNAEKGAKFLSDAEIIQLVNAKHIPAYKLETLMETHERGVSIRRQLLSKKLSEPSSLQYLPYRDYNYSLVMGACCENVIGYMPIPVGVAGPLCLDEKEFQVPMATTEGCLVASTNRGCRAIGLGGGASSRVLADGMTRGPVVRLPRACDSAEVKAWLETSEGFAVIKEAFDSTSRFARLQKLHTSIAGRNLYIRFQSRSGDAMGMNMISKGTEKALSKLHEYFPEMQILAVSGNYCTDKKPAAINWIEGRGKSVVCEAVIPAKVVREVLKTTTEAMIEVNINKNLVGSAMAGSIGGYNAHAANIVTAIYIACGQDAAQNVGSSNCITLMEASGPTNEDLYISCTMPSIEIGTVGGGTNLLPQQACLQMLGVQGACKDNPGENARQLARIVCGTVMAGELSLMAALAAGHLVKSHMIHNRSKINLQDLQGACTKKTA
Experimental: as §1, §2

5-HT2A serotonin receptors, sequence (P28223 whole entry): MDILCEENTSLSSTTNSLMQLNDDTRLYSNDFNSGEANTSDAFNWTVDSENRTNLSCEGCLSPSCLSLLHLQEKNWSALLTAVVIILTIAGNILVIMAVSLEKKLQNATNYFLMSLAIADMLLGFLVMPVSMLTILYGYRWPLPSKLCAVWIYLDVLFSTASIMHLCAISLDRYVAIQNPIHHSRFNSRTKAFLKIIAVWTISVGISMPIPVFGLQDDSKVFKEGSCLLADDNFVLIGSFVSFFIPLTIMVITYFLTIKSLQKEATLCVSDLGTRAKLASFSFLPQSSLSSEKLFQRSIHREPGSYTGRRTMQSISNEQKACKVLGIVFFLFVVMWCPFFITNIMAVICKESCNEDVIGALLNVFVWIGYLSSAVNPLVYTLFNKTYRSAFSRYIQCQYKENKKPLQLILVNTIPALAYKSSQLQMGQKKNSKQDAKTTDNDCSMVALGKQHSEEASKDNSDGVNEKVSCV

Cl.NCc1c[nH]c(=S)n1[C@H]1CCc2c(F)cc(F)cc2C1 [nepicastat, (S)-5-Aminomethyl-1-(5,7-difluoro-1,2,3,4-tetrahydronaphth-2-yl)-2,3-dihydro-2-thioxo-1H-imidazole hydrochloride]
< 5.00: pKi [1] | pKi (β2 adrenoceptors) | pKi (β1 adrenoceptors) | pKi (α2B adrenoceptors) | pKi (D1 dopamine receptors) | pKi (α2A adrenoceptors) | pKi [2] | pKi (D2 dopamine receptors) | pKi [3] | pKi (μ opioid receptors) | pKi (M1 muscarinic receptors) | pKi (⊕1B adrenoceptors) | pIC50 [4] | pIC50 (cyclooxygenase-I) | pIC50 (tyrosine hydroxylase) | pIC50 (acetyl CoA synthetase) | pIC50 (nitric oxide synthase) | pIC50 (HMG-CoA reductase)
